# Test results from ChEMBL document CHEMBL1156241, “Synthesis of a biologically active isomer of kotalanol, a naturally occurring glucosidase inhibitor” (Bioorg Med Chem, 2010).
# Target: Maltase-glucoamylase (Homo sapiens, UniProt O43451)
# Assay: Inhibition of recombinant human maltase glucoamylase N-terminal catalytic domain
# Maltase-glucoamylase, sequence (O43451 whole entry, the tested form may be a part): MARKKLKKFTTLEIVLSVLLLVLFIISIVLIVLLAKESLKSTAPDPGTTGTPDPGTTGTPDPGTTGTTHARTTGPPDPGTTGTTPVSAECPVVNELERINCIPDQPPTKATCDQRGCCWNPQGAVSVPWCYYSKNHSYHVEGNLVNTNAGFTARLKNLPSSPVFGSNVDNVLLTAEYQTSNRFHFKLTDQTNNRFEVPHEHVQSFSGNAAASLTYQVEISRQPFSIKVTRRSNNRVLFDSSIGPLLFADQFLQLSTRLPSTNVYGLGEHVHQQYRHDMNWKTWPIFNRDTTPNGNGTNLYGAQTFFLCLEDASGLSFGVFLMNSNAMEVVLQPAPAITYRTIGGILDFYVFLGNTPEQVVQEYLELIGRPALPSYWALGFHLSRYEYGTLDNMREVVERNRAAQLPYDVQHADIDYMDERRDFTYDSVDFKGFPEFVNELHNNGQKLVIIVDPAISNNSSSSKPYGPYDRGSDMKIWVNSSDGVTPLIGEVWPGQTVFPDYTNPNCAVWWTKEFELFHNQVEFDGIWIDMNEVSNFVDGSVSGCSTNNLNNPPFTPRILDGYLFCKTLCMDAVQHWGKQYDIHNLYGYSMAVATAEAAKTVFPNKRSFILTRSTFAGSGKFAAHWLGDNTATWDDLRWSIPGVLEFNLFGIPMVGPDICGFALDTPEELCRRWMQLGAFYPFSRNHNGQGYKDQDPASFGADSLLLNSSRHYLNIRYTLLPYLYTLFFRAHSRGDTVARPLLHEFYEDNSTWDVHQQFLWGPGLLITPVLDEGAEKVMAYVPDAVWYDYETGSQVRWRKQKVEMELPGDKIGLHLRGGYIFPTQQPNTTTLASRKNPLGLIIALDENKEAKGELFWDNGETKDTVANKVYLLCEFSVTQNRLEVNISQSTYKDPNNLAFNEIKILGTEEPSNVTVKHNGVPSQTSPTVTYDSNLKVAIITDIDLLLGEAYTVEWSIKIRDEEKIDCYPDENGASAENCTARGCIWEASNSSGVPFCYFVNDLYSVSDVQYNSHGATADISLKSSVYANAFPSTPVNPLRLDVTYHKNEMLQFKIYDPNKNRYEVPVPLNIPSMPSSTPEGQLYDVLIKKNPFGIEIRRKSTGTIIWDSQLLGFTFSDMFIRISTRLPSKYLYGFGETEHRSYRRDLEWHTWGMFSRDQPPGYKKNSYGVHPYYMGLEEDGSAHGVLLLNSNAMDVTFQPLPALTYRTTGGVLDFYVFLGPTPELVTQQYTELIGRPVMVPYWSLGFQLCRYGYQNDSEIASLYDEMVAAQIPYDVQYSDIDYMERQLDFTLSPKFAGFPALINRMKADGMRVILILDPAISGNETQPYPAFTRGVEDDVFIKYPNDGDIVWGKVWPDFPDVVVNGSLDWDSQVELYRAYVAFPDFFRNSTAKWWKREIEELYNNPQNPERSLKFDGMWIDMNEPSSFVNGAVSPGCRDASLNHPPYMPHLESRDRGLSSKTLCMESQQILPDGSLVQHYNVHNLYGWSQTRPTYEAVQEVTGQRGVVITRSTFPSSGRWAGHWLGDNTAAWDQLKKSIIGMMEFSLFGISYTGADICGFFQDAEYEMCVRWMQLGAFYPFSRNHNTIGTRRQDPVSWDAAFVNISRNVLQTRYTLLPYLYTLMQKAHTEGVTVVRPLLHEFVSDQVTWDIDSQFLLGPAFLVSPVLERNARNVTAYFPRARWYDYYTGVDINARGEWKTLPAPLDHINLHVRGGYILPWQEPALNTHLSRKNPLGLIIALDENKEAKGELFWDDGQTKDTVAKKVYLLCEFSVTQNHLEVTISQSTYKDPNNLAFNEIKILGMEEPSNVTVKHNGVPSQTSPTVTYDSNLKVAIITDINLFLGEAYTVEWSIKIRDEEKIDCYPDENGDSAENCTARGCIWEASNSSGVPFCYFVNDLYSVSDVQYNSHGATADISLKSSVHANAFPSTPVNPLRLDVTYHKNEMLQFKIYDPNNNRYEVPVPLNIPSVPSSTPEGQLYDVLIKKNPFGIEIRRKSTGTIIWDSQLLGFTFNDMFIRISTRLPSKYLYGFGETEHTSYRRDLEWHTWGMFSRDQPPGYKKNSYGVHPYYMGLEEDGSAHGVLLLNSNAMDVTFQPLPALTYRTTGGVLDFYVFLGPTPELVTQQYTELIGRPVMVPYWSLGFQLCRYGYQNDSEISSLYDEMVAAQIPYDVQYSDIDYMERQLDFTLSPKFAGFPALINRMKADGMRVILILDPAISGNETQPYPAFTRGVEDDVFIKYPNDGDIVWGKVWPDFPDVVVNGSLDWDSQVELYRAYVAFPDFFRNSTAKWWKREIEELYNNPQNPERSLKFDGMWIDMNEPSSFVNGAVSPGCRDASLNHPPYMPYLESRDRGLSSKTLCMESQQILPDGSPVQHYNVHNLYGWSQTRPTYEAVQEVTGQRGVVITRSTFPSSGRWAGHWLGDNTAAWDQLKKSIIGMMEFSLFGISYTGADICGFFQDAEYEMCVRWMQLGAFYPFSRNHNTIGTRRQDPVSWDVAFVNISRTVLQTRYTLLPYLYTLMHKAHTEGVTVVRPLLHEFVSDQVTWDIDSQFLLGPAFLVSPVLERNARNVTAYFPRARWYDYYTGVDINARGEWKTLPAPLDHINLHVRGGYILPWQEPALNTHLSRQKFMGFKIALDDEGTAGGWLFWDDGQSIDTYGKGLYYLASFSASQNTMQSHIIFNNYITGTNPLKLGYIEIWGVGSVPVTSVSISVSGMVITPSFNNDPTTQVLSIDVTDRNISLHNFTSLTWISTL
row,Structure (SMILES),Ki [nM]
1,O=S(=O)([O-])O[C@@H]([C@H](O)[C@H](O)[C@H](O)CO)[C@H](O)C[S+]1C[C@@H](O)[C@H](O)[C@H]1CO (some centres undefined),200
2,O=S(=O)([O-])O[C@@H]([C@H](O)[C@@H](O)[C@@H](O)CO)[C@H](O)C[S+]1C[C@@H](O)[C@H](O)[C@H]1CO (some centres undefined),100
3,O=S(=O)([O-])O[C@@H]([C@H](O)[C@H](O)[C@@H](O)CO)[C@H](O)C[S+]1C[C@@H](O)[C@H](O)[C@H]1CO (some centres undefined) [KOTALANOL],190
4,O=S(=O)([O-])O[C@@H]([C@H](O)[C@@H](O)[C@H](O)CO)[C@H](O)C[S+]1C[C@@H](O)[C@H](O)[C@H]1CO (some centres undefined),130
